Activity calls are given as the source filed them. No cut-off for these calls is given here.
Key:
AMP deaminase 1 = molecular target: T1, AMP deaminase 1 (Oryctolagus cuniculus, UniProt P81072); test: Inhibition of Oryctolagus cuniculus (rabbit) muscle adenylate deaminase; set-up: species or system Muscle tissue
T1 sequence (P81072 whole entry): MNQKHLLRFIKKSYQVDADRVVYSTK

[1] = Inhibition of adenylate deaminase
Adenosine deaminase = molecular target: T2, Adenosine deaminase (Bos taurus, UniProt P56658); test: Inhibition of Bos taurus (calf) […]
T2 sequence (P56658 whole entry): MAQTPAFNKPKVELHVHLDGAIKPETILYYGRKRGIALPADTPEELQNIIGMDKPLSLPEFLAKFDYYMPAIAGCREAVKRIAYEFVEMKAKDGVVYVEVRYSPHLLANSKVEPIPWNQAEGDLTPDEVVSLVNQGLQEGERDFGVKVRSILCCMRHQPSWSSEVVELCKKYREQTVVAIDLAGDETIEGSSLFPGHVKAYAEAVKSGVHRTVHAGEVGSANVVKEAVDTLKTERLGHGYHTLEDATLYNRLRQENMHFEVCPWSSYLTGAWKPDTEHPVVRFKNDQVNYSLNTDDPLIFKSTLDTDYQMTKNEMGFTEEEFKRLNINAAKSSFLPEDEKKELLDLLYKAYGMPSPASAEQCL

Pisum sativum [2] = test: Increase in ATP levels in Pisum sativum (pea) seedlings at 100 uM measured per gram of frozen weight after 24 hr by luciferase based assay (reference value: 213 to 226 nmol/g of frozen weight); assay type: functional, Lathyrus oleraceus
Pisum sativum [3] = test: Increase in ATP levels in Pisum sativum (pea) seedlings at 100 uM measured per gram of frozen weight after 4 hr by luciferase based assay (reference value: 253 to 267 nmol/g of frozen weight); assay type: functional, Lathyrus oleraceus

In the case of `O=P(O)(O)OC[C@H]1O[C@@H](c2n[nH]c3cncnc23)[C@H](O)[C@@H]1O`, the IC50 (AMP deaminase 1) is reported as 0.07 µM.
In the case of `O=P(O)(O)OC[C@H]1O[C@@H](n2cnc3cncnc32)[C@H](O)[C@@H]1O`, the Ki (AMP deaminase 1) is reported as 6.5 µM.
With `O=P(O)(O)OC[C@H]1C[C@@H](n2cnc3cncnc32)[C@H](O)[C@@H]1O` the inhibition [1] was “inactive”.
For `OC[C@H]1C[C@@H](n2cnc3cncnc32)[C@H](O)[C@@H]1O`, the inhibition [1] was “inactive”.
Work on `OC[C@H]1O[C@@H](c2n[nH]c3cncnc23)[C@H](O)[C@@H]1O` [DEAMINOFORMYCIN] yielded an IC50 (Adenosine deaminase) of 5 µM, an Activity (Pisum sativum [2]) of 693 nmol and an Activity (Pisum sativum [3]) of 423 nmol. The inhibition [1] was “inactive”.

Source: ChEMBL document CHEMBL3045958, “The design and synthesis of inhibitors of adenosine 5'-monophosphate deaminase” (Bioorg Med Chem Lett, 1999)
